Molecular target: T1, GTPase KRas [1-37] (Homo sapiens, UniProt G3V5T7)
T1 construct: 1-37
Experiment: blockade of Bodipy-GTP loading onto wild-type Ras – biochemical, oxadiazole analogs, multiplex bead flow cytometry, SAR follow-up (AID 2053)

[1] = inactive by the depositor's call

T1 sequence (G3V5T7 whole entry): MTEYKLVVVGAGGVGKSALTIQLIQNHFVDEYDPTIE

Row | SMILES | EC50 [µM] | EC50 [1] [µM]
1 | Cc1ccc(C)c(N2CCN(C(=O)CCc3nc(-c4ccccc4Cl)no3)CC2)c1 [3-[3-(2-chlorophenyl)-1,2,4-oxadiazol-5-yl]-1-[4-(2,5-dimethylphenyl)-1-piperazinyl]-1-propanone] | > 30 | 
2 | Cc1ccc(C)c(N2CCN(C(=O)CCc3nc(-c4ccccc4F)no3)CC2)c1 [KUC103401N] | > 30 | 
3 | COc1ccc(-c2noc(CCC(=O)N3CCN(c4ccc(Cl)cc4)CC3)n2)cc1 [UNM-0000306121] | > 30 | 
4 | COc1ccc(-c2noc(CCC(=O)N3CCN(c4ccc(OC)cc4)CC3)n2)cc1 [3-[3-(4-methoxyphenyl)-1,2,4-oxadiazol-5-yl]-1-[4-(4-methoxyphenyl)piperazin-1-yl]propan-1-one] | > 30 | 
5 | COc1ccc(-c2cccc(CCC(=O)N3CCN(c4cc(C)ccc4C)CC3)c2)cc1 [UNM-0000306127] | > 30 | 
6 | COc1ccc(-c2noc(CCC(=O)N3CCN(c4ccccc4Br)CC3)n2)cc1 [KUC103370N] | > 30 | 
7 | COc1ccc(-c2noc(CCC(=O)N3CCN(c4ccccc4Cl)CC3)n2)cc1 [1-[4-(2-chlorophenyl)piperazin-1-yl]-3-[3-(4-methoxyphenyl)-1,2,4-oxadiazol-5-yl]propan-1-one] |  | 1.87
8 | COc1ccc(-c2noc(CCC(=O)N3CCN(c4ccc(C(F)(F)F)cc4)CC3)n2)cc1 [3-[3-(4-methoxyphenyl)-1,2,4-oxadiazol-5-yl]-1-[4-[4-(trifluoromethyl)phenyl]piperazin-1-yl]propan-1-one] | > 30 | 
9 | COc1ccc(-c2ccc(CCC(=O)N3CCN(c4cc(C)ccc4C)CC3)s2)cc1 | > 30 | 
10 | Cc1ccc(C)c(N2CCN(C(=O)CCc3nc(-c4ccccc4C)no3)CC2)c1 | > 30 | 
11 | COc1ccc(-c2noc(CCC(=O)N3CCN(c4ccccc4C(F)(F)F)CC3)n2)cc1 [UNM-0000306082] | > 30 | 
12 | COc1ccc(-c2noc(CCC(=O)N3CCN(c4cccc(F)c4)CC3)n2)cc1 [1-[4-(3-fluorophenyl)piperazin-1-yl]-3-[3-(4-methoxyphenyl)-1,2,4-oxadiazol-5-yl]propan-1-one] | > 30 | 
13 | COc1ccc(-c2noc(CCC(=O)N3CCN(c4ccccc4OC)CC3)n2)cc1 [3-[3-(4-methoxyphenyl)-1,2,4-oxadiazol-5-yl]-1-[4-(2-methoxyphenyl)-1-piperazinyl]-1-propanone] | > 30 | 
14 | COc1ccc(-c2noc(CCC(=O)N3CCN(c4ccccc4F)CC3)n2)cc1 [1-[4-(2-fluorophenyl)piperazin-1-yl]-3-[3-(4-methoxyphenyl)-1,2,4-oxadiazol-5-yl]propan-1-one] |  | 0.05
15 | COc1ccc(-c2noc(CCC(=O)N3CCN(c4cccc(Cl)c4)CC3)n2)cc1 | > 30 | 
16 | Cc1ccc(C)c(N2CCN(C(=O)CCc3nc(-c4cccc(C(F)(F)F)c4)no3)CC2)c1 [KUC103380N] | > 30 | 
17 | COc1ccc(-c2cc(CCC(=O)N3CCN(c4cc(C)ccc4C)CC3)[nH]n2)cc1 [UNM-0000306150] | > 30 | 
18 | COc1ccc(-c2noc(CCC(=O)N3CCN(c4cccc(Br)c4)CC3)n2)cc1 [1-[4-(3-bromophenyl)-1-piperazinyl]-3-[3-(4-methoxyphenyl)-1,2,4-oxadiazol-5-yl]-1-propanone] |  | 0.017
19 | COc1ccc(-c2noc(CCC(=O)N3CCN(c4cccc(OC)c4)CC3)n2)cc1 [KUC103349N] | > 30 | 
20 | Cc1ccc(C)c(N2CCN(C(=O)CCc3nc(-c4ccccc4Br)no3)CC2)c1 [3-[3-(2-bromophenyl)-1,2,4-oxadiazol-5-yl]-1-[4-(2,5-dimethylphenyl)-1-piperazinyl]-1-propanone] |  | 0.033
21 | COc1ccc(-c2noc(CCC(=O)N3CCN(c4ccc(Br)cc4)CC3)n2)cc1 [1-[4-(4-bromophenyl)piperazin-1-yl]-3-[3-(4-methoxyphenyl)-1,2,4-oxadiazol-5-yl]propan-1-one] | > 30 | 
22 | Cc1ccc(C)c(N2CCN(C(=O)CCc3nc(-c4ccccc4C(F)(F)F)no3)CC2)c1 | > 30 | 
23 | COc1ccc(-c2noc(CCC(=O)N3CCN(c4ccccc4)CC3)n2)cc1 [3-[3-(4-methoxyphenyl)-1,2,4-oxadiazol-5-yl]-1-(4-phenylpiperazin-1-yl)propan-1-one] | > 30 | 
24 | COc1ccc(-c2noc(CCC(=O)N3CCN(c4cccc(C(F)(F)F)c4)CC3)n2)cc1 [1-{3-[3-(4-methoxyphenyl)-1,2,4-oxadiazol-5-yl]propanoyl}-4-[3-(trifluoromethyl)phenyl]piperazine] | > 30 | 
25 | COc1ccc(-c2ccc(CCC(=O)N3CCN(c4cc(C)ccc4C)CC3)[nH]2)cc1 [1-[4-(2,5-dimethylphenyl)piperazin-1-yl]-3-[5-(4-methoxyphenyl)-1H-pyrrol-2-yl]propan-1-one] | > 30 | 
26 | COc1ccc(-c2noc(CCC(=O)N3CCN(c4ccc(F)cc4)CC3)n2)cc1 [KUC103398N] | > 30 | 

Further lines, results first:

Row | EC50 [µM] | EC50 [1] [µM] | SMILES
27 | > 30 |  | COc1ccc(-c2noc(CC(=O)N3CCN(c4cc(C)ccc4C)CC3)n2)cc1 [1-[4-(2,5-dimethylphenyl)piperazin-1-yl]-2-[3-(4-methoxyphenyl)-1,2,4-oxadiazol-5-yl]ethanone]
28 | > 30 |  | COc1ccc(-c2cc(CCC(=O)N3CCN(c4cc(C)ccc4C)CC3)on2)cc1 [1-[4-(2,5-dimethylphenyl)piperazin-1-yl]-3-[3-(4-methoxyphenyl)-1,2-oxazol-5-yl]propan-1-one]
29 | > 30 |  | Cc1ccc(C)c(N2CCN(C(=O)CCc3nc(-c4cccc(Br)c4)no3)CC2)c1 [KUC103367N]
30 |  | 1.71 | COc1ccc(-c2noc(CCC(=O)N3CCN(c4cc(C)ccc4C)CC3)n2)cc1 [1-[4-(2,5-dimethylphenyl)-1-piperazinyl]-3-[3-(4-methoxyphenyl)-1,2,4-oxadiazol-5-yl]-1-propanone]
31 | > 30 |  | Cc1ccc(C)c(N2CCN(C(=O)CCc3nc(-c4cccc(F)c4)no3)CC2)c1 [KUC103366N]
32 | > 30 |  | Cc1ccc(C)c(N2CCN(C(=O)CCc3nc(-c4ccc(C(F)(F)F)cc4)no3)CC2)c1 [1-[4-(2,5-dimethylphenyl)-1-piperazinyl]-3-[3-[4-(trifluoromethyl)phenyl]-1,2,4-oxadiazol-5-yl]-1-propanone]
33 | > 30 |  | Cc1ccc(-c2noc(CCC(=O)N3CCN(c4cc(C)ccc4C)CC3)n2)cc1 [1-[4-(2,5-dimethylphenyl)-1-piperazinyl]-3-[3-(4-methylphenyl)-1,2,4-oxadiazol-5-yl]-1-propanone]
34 | > 30 |  | Cc1ccc(C)c(N2CCN(C(=O)CCc3nc(-c4ccc(Cl)cc4)no3)CC2)c1 [UNM-0000306083]
35 | > 30 |  | COc1ccc(-c2noc(CCC(=O)N3CCN(c4cccc(C)c4)CC3)n2)cc1 [UNM-0000306125]
36 |  | 0.869 | Cc1ccc(C)c(N2CCN(C(=O)CCc3nc(-c4ccccc4)no3)CC2)c1 [UNM-0000306070]
37 | > 30 |  | Cc1ccc(C)c(N2CCN(C(=O)CCc3nc(-c4cccc(Cl)c4)no3)CC2)c1 [UNM-0000306086]
38 | > 30 |  | COc1ccc(-c2noc(CCCC(=O)N3CCN(c4cc(C)ccc4C)CC3)n2)cc1 [KUC103353N]
39 | > 30 |  | COc1ccc(-c2noc(CCCCC(=O)N3CCN(c4cc(C)ccc4C)CC3)n2)cc1 [1-[4-(2,5-dimethylphenyl)-1-piperazinyl]-5-[3-(4-methoxyphenyl)-1,2,4-oxadiazol-5-yl]-1-pentanone]
40 | > 30 |  | Cc1ccc(C)c(N2CCN(C(=O)CCc3nc(-c4ccc(F)cc4)no3)CC2)c1 [KUC103364N]
41 | > 30 |  | COc1ccc(-c2coc(CCC(=O)N3CCN(c4cc(C)ccc4C)CC3)n2)cc1 [1-[4-(2,5-dimethylphenyl)piperazin-1-yl]-3-[4-(4-methoxyphenyl)-1,3-oxazol-2-yl]propan-1-one]
42 | > 30 |  | COc1ccc(-c2noc(CCC(=O)N3CCN(c4cccc(C)c4C)CC3)n2)cc1 [1-[4-(2,3-dimethylphenyl)-1-piperazinyl]-3-[3-(4-methoxyphenyl)-1,2,4-oxadiazol-5-yl]-1-propanone]
43 | > 30 |  | COc1ccc(-c2noc(CCC(=O)N3CCC(c4cc(C)ccc4C)CC3)n2)cc1 [KUC103432N]
44 |  | 1.49 | COc1cccc(-c2noc(CCC(=O)N3CCN(c4cc(C)ccc4C)CC3)n2)c1
45 | > 30 |  | COc1ccc(-c2noc(CCC(=O)N3CCN(c4ccccc4C)CC3)n2)cc1
46 | > 30 |  | COc1ccc(-c2ccc(CCC(=O)N3CCN(c4cc(C)ccc4C)CC3)o2)cc1 [KUC103447N]
47 | > 30 |  | COc1ccc(-c2noc(CCC(=O)N3CCN(c4ccc(C)cc4)CC3)n2)cc1 [3-[3-(4-methoxyphenyl)-1,2,4-oxadiazol-5-yl]-1-[4-(4-methylphenyl)piperazin-1-yl]propan-1-one]
48 |  | 1.83 | Cc1ccc(C)c(N2CCN(C(=O)CCc3nc(-c4ccc(Br)cc4)no3)CC2)c1 [UNM-0000306072]
49 | > 30 |  | Cc1cccc(-c2noc(CCC(=O)N3CCN(c4cc(C)ccc4C)CC3)n2)c1 [1-[4-(2,5-dimethylphenyl)piperazin-1-yl]-3-[3-(3-methylphenyl)-1,2,4-oxadiazol-5-yl]propan-1-one]
50 | > 30 |  | Cc1ccc(C)c(N2CCN(C(=O)CCc3nc(-c4ccc(N(C)C)cc4)no3)CC2)c1 [KUC103409N]
51 | > 30 |  | COc1ccccc1-c1noc(CCC(=O)N2CCN(c3cc(C)ccc3C)CC2)n1 [UNM-0000306071]

Reference: BindingDB's records for doi:10.7270/Q2JQ0ZF7 (Nmmlsc, 2009)
